In general, inhibition refers to the percentage by which the read-out fell short of the control.

In US7314888B1, “Compounds and medicinal use thereof” (Toyama Chemical Co., Ltd., priority 1998, dated 2008) one finds inhibition and Inhibition rate data, which are given here for 26 compounds.

Bridge positions count the residues as written; N and C are the ends. Peptide text beside a SMILES is read from it.

The target of test [1] is T1, AP-1 complex (Fos/Jun peptide) (Homo sapiens, UniProt P01100+P05412).
T1 construct: made in house; host or cells: chemical peptide synthesis (no expression host)
T1 sequence (P01100 137-200 limits assumed): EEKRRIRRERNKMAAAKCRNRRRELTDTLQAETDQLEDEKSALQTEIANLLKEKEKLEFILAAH
T1 sequence (P05412 252-315 limits assumed): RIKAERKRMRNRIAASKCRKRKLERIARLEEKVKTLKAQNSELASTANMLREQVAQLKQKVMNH
The test can be described thus: Activities on AP-1 binding reaction to recognition sequence (ELISA) using Fos/Jun peptide. The conditions noted are these: read-out: Inhibition rate %. As to the method: (§1) Activities on AP-1 Binding Reaction to Recognition Sequence (ELISA)
On the other hand, Jun peptide and N-terminal biotinylated tetraglycine Fos peptide containing a DNA-binding site [Nature, Vol. 373, Pages 257-261, 1995] were synthesized and separately dissolved in tris buffer (20 mM tris-hydrochloride (pH 7.5), 50 mM potassium chloride, 1 mM ethylenediaminetetraacetic acid, 10 mM magnesium chloride, 1 mM dithiothreitol, 0.5M guanidine hydrochloride, 30% glycerol). Equimolar quantities of both the solutions were mixed together, and the mixture was used as an AP-1 complex (Fos/Jun peptide). The AP-1 complex was added to avidin-coating 96-well ELISA plate (10 pmol/well), washed, and then blocked with bovine serum albumin. The product was used for binding assay using AP-1 complex.
(§2) On the basis of the above-mentioned two coated AP-1, a digoxigenin-labeled double stranded oligonucleotide (22-mer) containing an AP-1 binding sequence ([…]) which has been synthesized elsewhere was reacted in the presence and absence of a sample at room temperature for 30-60 minutes in a binding reaction solution [Hepes buffer or 25 mM tris-hydrochloric acid (pH 7.9), 0.5 mM ethylenediaminetetraacetic acid, 0.05% Nonidet P-40, 10% glycerol]. After of the reaction, unbound labeled oligonucleotide washed out with Hepes buffer solution containing 0.05% of Tween-20. Then, an anti-digoxigenin antibody labeled with peroxidase was added, and reacted with the labeled oligonucleotide bound to AP-1. After washing out the excessive antibody with Hepes buffer containing 0.05% of Tween-20, the residue was reacted for a predetermined period of time in a 100 mM citrate buffer (pH 5.0) containing hydrogen peroxide by using o-phenylenediamine as a substrate. After adding-sulfuric acid solution to each well, absorbance (492 nm) was measured. Taking the absorbance in the absence of sample as 100%, inhibition rate of sample was calculated from the absorbance in the presence of sample.
A general note: ELISA stands for enzyme-linked immunosorbent assay.

Test [2] has as its system transcription factor AP-1 (nuclear extract protein prepared from HeLa cells). The test can be described thus: Activities on AP-1 binding reaction to recognition sequence (ELISA) using nuclear extract protein. The conditions noted are these: 100 μM; ELISA using nucleus-extracted protein. As to the method: as §1
Nuclear extract protein containing transcription factor AP-1 prepared from HeLa cells was coated on 96-well ELISA plate (100 ng/well) in Hepes buffer (20 mM Hepes-potassium hydroxide (pH 7.9), 0,5 mM ethylenediamine-tetraacetic acid, 50 mM potassium chloride, 10% glycerol). After washing, a blocking treatment was carried out with bovine serum albumin, and then used for a binding assay using nuclear extract protein.
as §2

Turning to `CC(C)COc1ccc(C(=O)c2ccc(OCC(C)C)c(C(=O)NCC(=O)O)c2)c(OCC(C)C)c1` [Example 57, 2-{[5-(2,4-diisobutoxybenzoyl)-2-isobutoxybenzoyl]amino}-acetic acid], in test [1], the inhibition at 200 µM was determined as 13% and the inhibition at 500 µM is 62%.

For `CC(C)COc1ccc(C(O)c2ccc(OCC(C)C)c(CC(=O)O)c2)c(OCC(C)C)c1` (stereo not drawn) [Example 9, 2-{5-[(2,4-diisobutoxyphenyl)(hydroxy)methyl]-2-isobutoxyphenyl}-acetic acid], in test [1], the inhibition at 200 µM stood at 23% and the inhibition at 500 µM was determined as 37%.

Regarding `CC(C)COc1ccc(C(=O)c2ccc3c(c2)cc(C(=O)O)n3CC(C)C)c(OCC(C)C)c1` [Example 82, 5-(2,4-diisobutoxybenzoyl)-1-isobutyl-1H-indole-2-carboxylic acid], in test [1], the inhibition at 200 µM is 28% and the inhibition at 500 µM amounted to 97%.

In the case of `CC(=O)NC1CSSCC(C(N)=O)NC(=O)CNC(=O)C(CC(=O)O)NC(=O)C(C)NC(=O)C(CC(C)C)NC(=O)C(CO)NC(=O)C(CC(C)C)NC(=O)C(CCC(N)=O)NC(=O)CNC1=O` (stereo not drawn) [3(5), Ac-Cys^1-Gly-Gln-Leu-Ser-Leu-Ala-Asp-Gly-Cys^10-NH2 (Cys^1-Cys^10)] (Ac-CGQLSLADGC-NH2; disulfide 1-10; configuration not given here), the Inhibition rate in test [2] was 43%.

As for `CC(C)COc1ccc(C(=O)c2ccc(OCC(C)C)c(CCC(=O)O)c2)c(O)c1` [Example 38, 3-[5-(2-hydroxy-4-isobutoxybenzoyl)-2-isobutoxyphenyl]-propanoic acid], in test [1], the inhibition at 200 µM is 18% and the inhibition at 500 µM was 91%.

For the compound `CC(C)COc1ccc(C(=O)c2ccc(OCC(C)C)c(OCC(C)C)c2)cc1CCC(=O)O` [Example 47, 3-[5-(3,4-diisobutoxybenzoyl)-2-isobutoxyphenyl]-propanoic acid], in test [1], the inhibition at 200 µM turned out to be 35% and the inhibition at 500 µM came out at 92%.

Consider `CC(C)COc1ccc(C(O)c2ccc(OCC(C)C)c(C=CC(=O)O)c2)c(OCC(C)C)c1` (stereo not drawn) [Example 14, 3-[5-[(2,4-diisobutoxyphenyl)(hydroxy)methyl]-2-isobutoxyphenyl]-2-propenoic acid], for which, in test [1], the inhibition at 200 µM amounted to 21% and the inhibition at 500 µM turned out to be 90%.

For `CC(C)COc1ccc(C(=O)c2ccc(OCC(C)C)c(C(=O)O)c2)c(OCC(C)C)c1` [Example 8, 5-(2,4-diisobutoxybenzoyl)-2-isobutoxybenzoic acid], in test [1], the inhibition at 200 µM came out at 9% and the inhibition at 500 µM was determined as 20%.

Turning to `CC(C)COc1ccc(Cc2ccc(OCC(C)C)c(CC(=O)O)c2)c(OCC(C)C)c1` [Example 16, 2-[5-(2,4-diisobutoxybenzyl)-2-isobutoxyphenyl]acetic acid], in test [1], the inhibition at 200 µM is 21% and the inhibition at 500 µM worked out at 65%.

`CC(=O)NC1CSSCC(C(N)=O)NC(=O)C(CC(=O)O)NC(=O)CNC(=O)C(CC(C)C)NC(=O)C(C)NC(=O)C(CC(C)C)NC(=O)C(CC(C)C)NC(=O)C(CC(N)=O)NC(=O)CNC1=O` (stereo not drawn) [3 (10)] (Ac-CGNLLALGDC-NH2; disulfide 1-10; configuration not given here) came in with an Inhibition rate in test [2] of 76%.

The compound “Ac-Asn-Cys^2-Gly-Asn-Leu-Leu-Ala-Leu-Gly-Ser-Cys^11-NH2 (Cys^2-Cys^11) (GNLLALGSC; not fully specified; Ac-Asn-Cys N-term, C-amide, disulfide; printed: Gly-Asn-Leu-Leu-Ala-Leu-Gly-Ser-Cys) [3(7)]” came in with an Inhibition rate in test [2] of 74%.

With `CC(C)COc1ccc(C(=O)c2ccc(OCC(C)C)c(CC(=O)O)c2)c(OCC(C)C)c1` [Example 7, 2-[5-(2,4-diisobutoxybenzoyl)-2-isobutoxyphenyl]acetic acid], in test [1], the inhibition at 200 µM is 14% and the inhibition at 500 µM is 46%.

`CC(C)COc1ccc(C(=O)c2ccc(OCC(C)C)c(OCC(=O)O)c2)c(OCC(C)C)c1` [Example 53, 2-[5-(2,4-diisobutoxybenzoyl)-2-isobutoxyphenoxy]acetic acid]: in test [1], the inhibition at 200 µM is 30% and the inhibition at 500 µM is 79%.

For the compound `CC(=O)NC1CSSCC(C(N)=O)NC(=O)CNC(=O)CNC(=O)C(C)NC(=O)C(CC(C)C)NC(=O)C(CC(=O)O)NC(=O)C(CC(C)C)NC(=O)C(CCC(N)=O)NC(=O)CNC1=O` (stereo not drawn) [3(3), Ac-Cys^1-Gly-Gln-Leu-Asp-Leu-Ala-Gly-Gly-Cys^10-NH2 (Cys^1-Cys^10)] (Ac-CGQLDLAGGC-NH2; disulfide 1-10; configuration not given here), in test [2], the Inhibition rate is given as 43%.

For `CC(C)COc1ccc(C(NS(C)(=O)=O)c2ccc(OCC(C)C)c(CCC(=O)O)c2)c(OCC(C)C)c1` (stereo not drawn) [Example 73, 3-(5-{(2,4-diisobutoxyphenyl)[(methylsulfonyl)amino]methyl}-2-isobutoxyphenyl)propanoic acid], in test [1], the inhibition at 200 µM stood at 18% and the inhibition at 500 µM was determined as 74%.

For the compound `CC(C)COc1ccc(C(O)c2ccc(OCC(C)C)c(CCC(=O)O)c2)c(OCC(C)C)c1` (stereo not drawn) [Example 15, 3-{5-[(2,4-diisobutoxyphenyl)(hydroxy)methyl]-2-isobutoxyphenyl}propionic acid], in test [1], the inhibition at 200 µM turned out to be 19% and the inhibition at 500 µM amounted to 64%.

In test [2], `CC(=O)NC1CSSCC(C(N)=O)NC(=O)CNC(=O)C(CC(C)C)NC(=O)C(C)NC(=O)C(CC(C)C)NC(=O)C(CO)NC(=O)C(CC(C)C)NC(=O)C(CCC(N)=O)NC(=O)CNC1=O` (stereo not drawn) [3 (2)] (Ac-CGQLSLALGC-NH2; disulfide 1-10; configuration not given here) registered an Inhibition rate of 94%.

`CC(C)COc1ccc(OCC(C)C)c(C(=O)c2ccc(OCC(C)C)c(CCC(=O)O)c2)c1` [Example 43, 3-[5-(2,5-diisobutoxybenzoyl)-2-isobutoxyphenyl]-propanoic acid]: in test [1], the inhibition at 200 µM worked out at 28% and the inhibition at 500 µM is 72%.

For the compound `CC(C)CCOc1ccc(C(=O)c2ccc3c(c2)n(CCC(C)C)c(=O)n3CCC(C)C)cc1CC(=O)O` [Example 90, 2-[5-[(1,3-diisopentyl-2-oxo-2,3-dihydro-1H-benzimidazol-5-yl)carbonyl]-2-(isopentyloxy)phenyl]-acetic acid], in test [1], the inhibition at 200 µM was 26% and the inhibition at 500 µM was determined as 96%.

In the case of `CC(=O)NC1CSSCC(C(N)=O)NC(=O)CNC(=O)C(CC(=O)O)NC(=O)C(C)NC(=O)C(CC(C)C)NC(=O)C(CC(=O)O)NC(=O)C(CC(C)C)NC(=O)C(CC(N)=O)NC(=O)CNC1=O` (stereo not drawn) [3 (6)] (Ac-CGNLDLADGC-NH2; disulfide 1-10; configuration not given here), the Inhibition rate in test [2] is listed as 42%.

As to `CC(C)COc1cc(OCC(C)C)cc(C(=O)c2ccc(OCC(C)C)c(CCC(=O)O)c2)c1` [Example 41, 3-[5-(3,5-diisobutoxybenzoyl)-2-isobutoxyphenyl]propanoic acid], in test [1], the inhibition at 200 µM is 27% and the inhibition at 500 µM was found to be 78%.

As to `CC(C)COc1ccc(C(=O)c2ccc(OCC(C)C)c(CCC(=O)NS(C)(=O)=O)c2)c(OCC(C)C)c1` [Example 58, N-{3-[5-(2,4-diisobutoxybenzoyl)-2-isobutoxyphenyl]propanoyl}methanesulfonamide], in test [1], the inhibition at 200 µM is 22% and the inhibition at 500 µM is 88%.

As to `CC(C)CC=C1CCC2(CC1)SC[C@H](C(=O)O)N2C(=O)CCC(C)C` (stereo partly drawn) [Example 4, (3S)-8-(3-methylbutylidene)-4-(4-methylpentanoyl)-1-thia-4-azaspiro[4.5]-decane-3-carboxylic acid], in test [1], the inhibition at 200 µM turned out to be 8% and the inhibition at 500 µM is 15%.

Consider `CC(=O)NC1CSSCC(C(N)=O)NC(=O)CNC(=O)C(CC(N)=O)NC(=O)C(C)NC(=O)C(CC(C)C)NC(=O)C(CC(=O)O)NC(=O)C(CC(C)C)NC(=O)C(CCC(N)=O)NC(=O)CNC1=O` (stereo not drawn) [3 (4)] (Ac-CGQLDLANGC-NH2; disulfide 1-10; configuration not given here), for which, in test [2], the Inhibition rate was 64%.

In the case of `CC(C)COc1ccc(C(=O)c2ccc(OCC(C)C)c(/C=C/C(=O)O)c2)c(OCC(C)C)c1` [Example 13, 3-[5-(2,4-diisobutoxybenzoyl)-2-isobutoxyphenyl]-2-propenoic acid], in test [1], the inhibition at 200 µM came out at 43% and the inhibition at 500 µM came to 96%.

On to `CC(C)CCOc1ccc(C(=O)c2cc(C(=O)CC(C)C)cn2CCC(C)C)cc1CCC(=O)O` [Example 88, 3-[5-{[1-isopentyl-4-(3-methylbutanoyl)-1H-pyrrol-2-yl]carbonyl}-2-(isopentyloxy)phenyl]propanoic acid], for which, in test [1], the inhibition at 200 µM is 29% and the inhibition at 500 µM turned out to be 72%.
